{"source": "patent US20080009418A1", "about": "“Selective Inhibitors” (Alchemia LTD., priority 2004, published 2008)", "conditions_in_all_cases": "compound at 10 μM", "key": {"Human δ-opioid (DOP)": {"target": "T1, Human δ-opioid (DOP) (Homo sapiens, UniProt P41143)", "T1 construct": "purchased Perkin Elmer Biosignal", "T1 sequence (P41143 whole entry)": "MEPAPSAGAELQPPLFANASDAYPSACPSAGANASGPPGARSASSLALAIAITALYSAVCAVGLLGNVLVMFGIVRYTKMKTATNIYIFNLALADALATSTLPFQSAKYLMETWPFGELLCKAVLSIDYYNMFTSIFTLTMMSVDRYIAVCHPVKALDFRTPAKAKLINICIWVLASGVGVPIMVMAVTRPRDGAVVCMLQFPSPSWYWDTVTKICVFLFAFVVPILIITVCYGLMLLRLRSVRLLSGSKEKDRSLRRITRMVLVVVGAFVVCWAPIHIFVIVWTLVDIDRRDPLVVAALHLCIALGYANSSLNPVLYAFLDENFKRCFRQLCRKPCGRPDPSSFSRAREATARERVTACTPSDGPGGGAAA", "assay": "Radioligand binding, human δ-opioid (DOP) membranes, FlashPlate, [3H]-Bremazocine", "summary_of_the_method": "(§1)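 Cloned human receptor membranes were coated onto FlashPlate wells and incubated with radioligand and compound (added from a 0.5 mM DMSO daughter plate) for 1 hour at room temperature in the dark. Scintillation counting gave percent inhibition, with DMSO defining total and reference ligand defining non-specific binding.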"}, "Human κ-Opioid (KOP)": {"target": "T2, Human κ-Opioid (KOP) (Homo sapiens, UniProt P41145)", "T2 construct": "purchased Perkin Elmer Biosignal", "T2 sequence (P41145 whole entry)": "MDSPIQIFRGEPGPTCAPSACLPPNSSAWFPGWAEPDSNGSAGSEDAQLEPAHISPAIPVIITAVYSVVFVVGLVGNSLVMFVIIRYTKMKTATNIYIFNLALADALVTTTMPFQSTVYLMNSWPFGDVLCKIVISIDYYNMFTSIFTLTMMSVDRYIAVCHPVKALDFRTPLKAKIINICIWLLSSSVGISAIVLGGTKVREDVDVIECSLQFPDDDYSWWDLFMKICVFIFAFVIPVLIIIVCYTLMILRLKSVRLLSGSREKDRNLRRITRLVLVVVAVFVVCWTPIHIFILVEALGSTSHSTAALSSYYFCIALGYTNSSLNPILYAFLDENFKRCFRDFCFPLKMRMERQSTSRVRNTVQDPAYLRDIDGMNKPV", "assay": "Radioligand binding, human κ-opioid (KOP) membranes, filtration, [3H]-Diprenorphine", "summary_of_the_method": "(§2)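 Membranes from cloned human receptors were incubated with compound and radioligand for 1 hour at room temperature. Bound ligand was collected on 0.3% PEI-soaked filters, washed with cold 50 mM Tris-HCl pH 7.4, and counted by scintillation. Percent inhibition was computed against DMSO totals and reference-ligand nonspecific wells.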"}, "Human neurokinin (NK1)": {"target": "T3, Human neurokinin (NK1) (Homo sapiens, UniProt P25103)", "T3 construct": "purchased Perkin Elmer Biosignal", "T3 sequence (P25103 whole entry)": "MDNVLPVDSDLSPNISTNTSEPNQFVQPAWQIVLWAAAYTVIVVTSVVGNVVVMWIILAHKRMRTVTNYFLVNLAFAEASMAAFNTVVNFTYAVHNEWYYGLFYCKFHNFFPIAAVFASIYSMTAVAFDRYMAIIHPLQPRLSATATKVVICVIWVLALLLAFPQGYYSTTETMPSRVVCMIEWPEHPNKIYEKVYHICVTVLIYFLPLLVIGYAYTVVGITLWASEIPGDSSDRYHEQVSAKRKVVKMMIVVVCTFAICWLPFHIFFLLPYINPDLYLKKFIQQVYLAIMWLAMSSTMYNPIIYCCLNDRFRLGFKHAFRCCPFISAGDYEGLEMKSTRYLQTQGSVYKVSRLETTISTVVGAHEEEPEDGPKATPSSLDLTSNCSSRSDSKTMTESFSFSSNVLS", "assay": "Radioligand binding, human neurokinin NK1 membranes, filtration, [125I]-Substance P", "summary_of_the_method": "as §2"}, "[1]": {"target": "T4, Human melanin-concentrating hormone (MCH1) (Homo sapiens, UniProt Q99705)", "T4 construct": "purchased Perkin Elmer Biosignal", "T4 sequence (Q99705 whole entry)": "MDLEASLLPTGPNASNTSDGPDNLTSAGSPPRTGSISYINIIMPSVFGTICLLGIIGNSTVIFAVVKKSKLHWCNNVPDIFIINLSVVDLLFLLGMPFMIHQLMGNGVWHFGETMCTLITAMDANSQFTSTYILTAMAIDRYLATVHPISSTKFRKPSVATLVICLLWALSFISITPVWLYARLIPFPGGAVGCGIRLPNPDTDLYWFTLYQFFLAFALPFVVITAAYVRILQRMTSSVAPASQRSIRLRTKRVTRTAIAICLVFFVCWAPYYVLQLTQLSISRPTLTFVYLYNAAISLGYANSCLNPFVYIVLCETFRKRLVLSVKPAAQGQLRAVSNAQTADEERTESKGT", "assay": "Radioligand binding, human melanin-concentrating hormone MCH1 membranes, FlashPlate, [125I]-S36057", "summary_of_the_method": "as §1"}, "Human Melanocortin (MC3)": {"target": "T5, Human Melanocortin (MC3) (Homo sapiens, UniProt P41968)", "T5 construct": "purchased Perkin Elmer Biosignal", "T5 sequence (P41968 whole entry)": "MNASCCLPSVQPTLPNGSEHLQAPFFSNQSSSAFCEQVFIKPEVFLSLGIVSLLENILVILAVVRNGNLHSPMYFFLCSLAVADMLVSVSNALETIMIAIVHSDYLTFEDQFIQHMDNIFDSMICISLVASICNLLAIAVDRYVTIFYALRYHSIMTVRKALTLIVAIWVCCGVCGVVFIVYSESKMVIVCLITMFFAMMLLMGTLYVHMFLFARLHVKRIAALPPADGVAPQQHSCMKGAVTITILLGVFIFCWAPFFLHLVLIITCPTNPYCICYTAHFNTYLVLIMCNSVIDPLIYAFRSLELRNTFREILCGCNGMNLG", "assay": "Radioligand binding, human melanocortin MC3 membranes, FlashPlate, [125I]-NDP-αMSH", "summary_of_the_method": "as §1"}, "[2]": {"target": "T6, Human neuropeptide Y (NPY-Y1) (Homo sapiens, UniProt P25929)", "T6 construct": "purchased Perkin Elmer Biosignal", "T6 sequence (P25929 1-384)": "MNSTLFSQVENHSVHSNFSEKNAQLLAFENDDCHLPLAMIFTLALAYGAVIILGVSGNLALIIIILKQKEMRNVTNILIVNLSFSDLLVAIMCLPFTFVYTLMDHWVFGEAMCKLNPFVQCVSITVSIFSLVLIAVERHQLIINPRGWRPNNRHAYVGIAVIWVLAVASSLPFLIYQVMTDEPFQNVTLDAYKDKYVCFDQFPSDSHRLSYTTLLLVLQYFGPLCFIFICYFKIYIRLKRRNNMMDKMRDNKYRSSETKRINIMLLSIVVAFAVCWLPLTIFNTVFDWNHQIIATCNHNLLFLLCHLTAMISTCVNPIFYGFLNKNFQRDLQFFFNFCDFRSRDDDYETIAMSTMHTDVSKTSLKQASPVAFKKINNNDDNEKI", "assay": "Radioligand binding, human neuropeptide Y NPY-Y1 membranes, FlashPlate, [125I]-PYY", "summary_of_the_method": "as §1"}, "Human Melanocortin (MC4)": {"target": "T7, Human Melanocortin (MC4) (Homo sapiens, UniProt P32245)", "T7 construct": "purchased Perkin Elmer Biosignal", "T7 sequence (P32245 whole entry)": "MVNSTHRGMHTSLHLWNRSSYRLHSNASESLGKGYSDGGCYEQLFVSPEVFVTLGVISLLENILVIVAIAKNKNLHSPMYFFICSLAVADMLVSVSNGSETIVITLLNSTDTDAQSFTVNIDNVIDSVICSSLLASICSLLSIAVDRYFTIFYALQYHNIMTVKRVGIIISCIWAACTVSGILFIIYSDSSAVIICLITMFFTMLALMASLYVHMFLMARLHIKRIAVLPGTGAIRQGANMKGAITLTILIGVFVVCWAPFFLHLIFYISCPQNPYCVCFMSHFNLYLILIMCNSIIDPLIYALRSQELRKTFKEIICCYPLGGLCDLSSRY", "assay": "Radioligand binding, human melanocortin MC4 membranes, FlashPlate, [125I]-NDP-αMSH", "summary_of_the_method": "as §1"}, "Mouse urotensin (mUR2)": {"target": "T8, Mouse urotensin (mUR2) (Mus musculus, UniProt Q8VIH9)", "T8 construct": "purchased Perkin Elmer Biosignal", "T8 sequence (Q8VIH9 1-385)": "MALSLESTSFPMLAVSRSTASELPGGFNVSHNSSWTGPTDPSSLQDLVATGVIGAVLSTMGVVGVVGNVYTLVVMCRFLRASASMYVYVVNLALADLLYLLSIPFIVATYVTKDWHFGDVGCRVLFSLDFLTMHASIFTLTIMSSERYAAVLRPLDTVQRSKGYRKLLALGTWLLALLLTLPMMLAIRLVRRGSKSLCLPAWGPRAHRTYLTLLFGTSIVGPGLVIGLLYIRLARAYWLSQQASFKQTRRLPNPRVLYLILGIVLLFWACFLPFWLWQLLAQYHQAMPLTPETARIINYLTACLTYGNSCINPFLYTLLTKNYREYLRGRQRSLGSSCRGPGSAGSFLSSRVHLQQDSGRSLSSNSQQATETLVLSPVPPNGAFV", "assay": "Radioligand binding, mouse urotensin mUR2 membranes, FlashPlate, [125I]-Urotensin II", "summary_of_the_method": "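Cloned mouse urotensin (mUR2) receptor membranes from Perkin Elmer Biosignal were immobilized in FlashPlate microplates using a proprietary coating. Each well got 19.5 μl buffer, then 0.5 μl of DMSO, reference ligand, or compound. Adding 5 μl of [125I]-Urotensin II, diluted to 5× final concentration in binding buffer, started binding. Plates were sealed with TopSeal-A and incubated 1 hour at room temperature in the dark. Wells were counted for 30 seconds each on a TopCount after a 60-second delay, and percentage inhibition was calculated.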"}, "Human μ-opioid (MOP)": {"target": "T9, Human μ-opioid (MOP) (Homo sapiens, UniProt P35372)", "T9 construct": "purchased Perkin Elmer Biosignal", "T9 sequence (P35372 whole entry)": "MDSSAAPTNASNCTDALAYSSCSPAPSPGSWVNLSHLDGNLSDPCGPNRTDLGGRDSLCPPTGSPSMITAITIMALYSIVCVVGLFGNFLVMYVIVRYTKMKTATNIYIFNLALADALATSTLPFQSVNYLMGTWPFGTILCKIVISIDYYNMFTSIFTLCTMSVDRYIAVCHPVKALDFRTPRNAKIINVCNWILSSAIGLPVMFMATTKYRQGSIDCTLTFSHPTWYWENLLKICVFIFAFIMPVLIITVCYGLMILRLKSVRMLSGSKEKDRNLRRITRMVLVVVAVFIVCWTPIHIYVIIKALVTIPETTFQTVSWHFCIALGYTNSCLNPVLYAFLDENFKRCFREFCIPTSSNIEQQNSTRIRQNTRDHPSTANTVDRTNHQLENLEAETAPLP", "assay": "Radioligand binding, human μ-opioid (MOP) membranes, FlashPlate, [3H]-Naloxone", "summary_of_the_method": "as §1"}, "Human opioid (ORL1)": {"target": "T10, Human opioid (ORL1) (Homo sapiens, UniProt P41146)", "T10 construct": "purchased Perkin Elmer Biosignal", "T10 sequence (P41146 whole entry)": "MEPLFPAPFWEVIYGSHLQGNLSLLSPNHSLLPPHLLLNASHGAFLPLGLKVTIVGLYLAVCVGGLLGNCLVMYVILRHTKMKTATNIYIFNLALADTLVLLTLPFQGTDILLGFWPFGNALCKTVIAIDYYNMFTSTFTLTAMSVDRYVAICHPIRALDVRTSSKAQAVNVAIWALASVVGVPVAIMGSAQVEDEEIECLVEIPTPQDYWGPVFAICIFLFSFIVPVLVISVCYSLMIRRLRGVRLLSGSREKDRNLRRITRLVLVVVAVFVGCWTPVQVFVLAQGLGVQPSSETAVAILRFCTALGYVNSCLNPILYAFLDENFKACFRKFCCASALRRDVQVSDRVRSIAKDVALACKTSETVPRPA", "assay": "Radioligand binding, human opioid ORL1 membranes, FlashPlate, [125I]-Nociceptin", "summary_of_the_method": "as §1"}, "Human melanocortin (MC5)": {"target": "T11, Human melanocortin (MC5) (Homo sapiens, UniProt P33032)", "T11 construct": "purchased Perkin Elmer Biosignal", "T11 sequence (P33032 whole entry)": "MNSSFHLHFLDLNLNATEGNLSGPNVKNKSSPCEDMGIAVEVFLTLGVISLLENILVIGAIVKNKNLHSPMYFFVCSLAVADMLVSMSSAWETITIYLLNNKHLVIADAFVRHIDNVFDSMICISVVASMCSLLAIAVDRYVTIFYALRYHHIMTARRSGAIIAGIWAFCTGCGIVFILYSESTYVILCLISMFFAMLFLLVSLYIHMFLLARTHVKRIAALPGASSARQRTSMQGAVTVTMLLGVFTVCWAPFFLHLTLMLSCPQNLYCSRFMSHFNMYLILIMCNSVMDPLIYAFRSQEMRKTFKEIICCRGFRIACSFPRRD", "assay": "Radioligand binding, human melanocortin MC5 membranes, FlashPlate, [125I]-NDP-αMSH", "summary_of_the_method": "as §1"}}}
{"compound": "CSC1OC(COCc2ccccc2)C(O)C(OCc2ccc(Cl)cc2)C1NC(=O)CCNC(=N)N", "note": "(stereo not drawn) [compound 267]", "values": [{"measurement": "A1: inhibition of radioligand binding", "setting": "Human δ-opioid (DOP); [3H]-Bremazocine, FlashPlate", "result": "− (“−” indicates less than 50% inhibition at 10 μM)"}, {"measurement": "A2: inhibition of radioligand binding", "setting": "Human κ-Opioid (KOP); [3H]-Diprenorphine, filtration", "result": "− (“−” indicates less than 50% inhibition at 10 μM)"}, {"measurement": "A8: inhibition of radioligand binding", "setting": "Human neurokinin (NK1); [125I]-Substance P, filtration", "result": "+ (“+” indicates greater than 50% inhibition at 10 μM)"}, {"measurement": "A6: inhibition of radioligand binding", "setting": "[1]; [125I]-S36057, FlashPlate", "result": "− (“−” indicates less than 50% inhibition at 10 μM)"}, {"measurement": "A3: inhibition of radioligand binding", "setting": "Human Melanocortin (MC3); [125I]-NDP-αMSH, FlashPlate", "result": "− (“−” indicates less than 50% inhibition at 10 μM)"}, {"measurement": "A9: inhibition of radioligand binding", "setting": "[2]; [125I]-PYY, FlashPlate", "result": "− (“−” indicates less than 50% inhibition at 10 μM)"}, {"measurement": "A4: inhibition of radioligand binding", "setting": "Human Melanocortin (MC4); [125I]-NDP-αMSH, FlashPlate", "result": "+ (“+” indicates greater than 50% inhibition at 10 μM)"}, {"measurement": "A11: inhibition of radioligand binding", "setting": "Mouse urotensin (mUR2); [125I]-Urotensin II, FlashPlate", "result": "− (“−” indicates less than 50% inhibition at 10 μM)"}, {"measurement": "A7: inhibition of radioligand binding", "setting": "Human μ-opioid (MOP); [3H]-Naloxone, FlashPlate", "result": "− (“−” indicates less than 50% inhibition at 10 μM)"}, {"measurement": "A10: inhibition of radioligand binding", "setting": "Human opioid (ORL1); [125I]-Nociceptin, FlashPlate", "result": "− (“−” indicates less than 50% inhibition at 10 μM)"}, {"measurement": "A5: inhibition of radioligand binding", "setting": "Human melanocortin (MC5); [125I]-NDP-αMSH, FlashPlate", "result": "− (“−” indicates less than 50% inhibition at 10 μM)"}]}
{"compound": "COC[C@H]1OC(OCCc2ccccc2)[C@H](NC(=O)CCCNC(=N)N)[C@@H](OCc2ccc(-c3ccccc3)cc2)[C@@H]1O", "note": "(stereo partly drawn) [compound 43]", "values": [{"measurement": "A1 radioligand binding inhibition", "setting": "Human δ-opioid (DOP); human δ-opioid (DOP) membranes", "result": "− (“−” indicates less than 50% inhibition at 10 μM)"}, {"measurement": "A2 radioligand binding inhibition", "setting": "Human κ-Opioid (KOP); human κ-opioid (KOP) membranes", "result": "+ (“+” indicates greater than 50% inhibition at 10 μM)"}, {"measurement": "A8 radioligand binding inhibition", "setting": "Human neurokinin (NK1); human neurokinin NK1 membranes", "result": "+ (“+” indicates greater than 50% inhibition at 10 μM)"}, {"measurement": "A6 radioligand binding inhibition", "setting": "[1]; human MCH1 membranes", "result": "+ (“+” indicates greater than 50% inhibition at 10 μM)"}, {"measurement": "A3 radioligand binding inhibition", "setting": "Human Melanocortin (MC3); human melanocortin MC3 membranes", "result": "+ (“+” indicates greater than 50% inhibition at 10 μM)"}, {"measurement": "A9 radioligand binding inhibition", "setting": "[2]; human NPY-Y1 membranes", "result": "− (“−” indicates less than 50% inhibition at 10 μM)"}, {"measurement": "A4 radioligand binding inhibition", "setting": "Human Melanocortin (MC4); human melanocortin MC4 membranes", "result": "+ (“+” indicates greater than 50% inhibition at 10 μM)"}, {"measurement": "A11 radioligand binding inhibition", "setting": "Mouse urotensin (mUR2); mouse urotensin mUR2 membranes", "result": "− (“−” indicates less than 50% inhibition at 10 μM)"}, {"measurement": "A7 radioligand binding inhibition", "setting": "Human μ-opioid (MOP); human μ-opioid (MOP) membranes", "result": "+ (“+” indicates greater than 50% inhibition at 10 μM)"}, {"measurement": "A10 radioligand binding inhibition", "setting": "Human opioid (ORL1); human ORL1 membranes", "result": "− (“−” indicates less than 50% inhibition at 10 μM)"}, {"measurement": "A5 radioligand binding inhibition", "setting": "Human melanocortin (MC5); human melanocortin MC5 membranes", "result": "+ (“+” indicates greater than 50% inhibition at 10 μM)"}]}
{"compound": "CO[C@H]1[C@H](O)[C@@H](COCc2ccc3ccccc3c2)OC(OCCc2ccccc2)[C@@H]1NC(=O)CCCN", "note": "(stereo partly drawn) [compound 115]", "values": [{"measurement": "A1 radioligand binding, percentage inhibition", "setting": "Human δ-opioid (DOP); [3H]-Bremazocine", "result": "− (“−” indicates less than 50% inhibition at 10 μM)"}, {"measurement": "A2 radioligand binding, percentage inhibition", "setting": "Human κ-Opioid (KOP); [3H]-Diprenorphine", "result": "− (“−” indicates less than 50% inhibition at 10 μM)"}, {"measurement": "A8 radioligand binding, percentage inhibition", "setting": "Human neurokinin (NK1); [125I]-Substance P", "result": "+ (“+” indicates greater than 50% inhibition at 10 μM)"}, {"measurement": "A6 radioligand binding, percentage inhibition", "setting": "[1]; [125I]-S36057", "result": "− (“−” indicates less than 50% inhibition at 10 μM)"}, {"measurement": "A3 radioligand binding, percentage inhibition", "setting": "Human Melanocortin (MC3); [125I]-NDP-αMSH", "result": "− (“−” indicates less than 50% inhibition at 10 μM)"}, {"measurement": "A9 radioligand binding, percentage inhibition", "setting": "[2]; [125I]-PYY", "result": "− (“−” indicates less than 50% inhibition at 10 μM)"}, {"measurement": "A4 radioligand binding, percentage inhibition", "setting": "Human Melanocortin (MC4); [125I]-NDP-αMSH", "result": "− (“−” indicates less than 50% inhibition at 10 μM)"}, {"measurement": "A11 radioligand binding, percentage inhibition", "setting": "Mouse urotensin (mUR2); [125I]-Urotensin II", "result": "− (“−” indicates less than 50% inhibition at 10 μM)"}, {"measurement": "A7 radioligand binding, percentage inhibition", "setting": "Human μ-opioid (MOP); [3H]-Naloxone", "result": "− (“−” indicates less than 50% inhibition at 10 μM)"}, {"measurement": "A10 radioligand binding, percentage inhibition", "setting": "Human opioid (ORL1); [125I]-Nociceptin", "result": "− (“−” indicates less than 50% inhibition at 10 μM)"}, {"measurement": "A5 radioligand binding, percentage inhibition", "setting": "Human melanocortin (MC5); [125I]-NDP-αMSH", "result": "− (“−” indicates less than 50% inhibition at 10 μM)"}]}
